Measured values from patent EP0506565A1, “Use of 4,9,11-trienic steroids in compositions for turkeys” (ROUSSEL-UCLAF, priority 1991, dated 1992).

Assays:
[1] = Observation of locomotor behaviour of treated turkeys; assay type: in vivo, dinde; details: oral administration
[2] = Biological test: trenbolone acetate given orally in the feed, weight gain and feed conversion index; assay type: in vivo, dinde femelle; design: GPM = Gain de poids cumulé: unit not given here
Source text: L'essai a été effectué sur des dindes femelles âgées de 10 semaines.
Les animaux sont répartis en 2 groupes : • un groupe témoin de 37 animaux, • un groupe de 37 animaux recevant de l'acétate de trenbolone dans leur nourriture.
Les dindes reçoivent une quantité rationnée de nourriture renfermant l'acétate de trenbolone puis sont nourries ad libitum.
On calcule le poids moyen des dindes par pesée individuelle chaque semaine. On calcule le gain de poids moyen et l'indice de consommation c'est-à-dire (le poids total de nourriture que l'animal a reçu)/(gain de poids total) [formula]
Les résultats sont résumés dans le tableau ci-dessus, ainsi que dans les courbes jointes en annexe. • Courbe 1 : évolution pondérale des dindes femelles de 9 à 19 semaines. • Courbe 2 : évolution de la différence entre les indices de consommation cumulés témoins-traités. • Courbe 3 : évolution de la différence entre les gains de poids moyens des animaux traités par rapport aux animaux témoins.

[3] = Course of plasma transaminase levels in orally treated turkeys; assay type: in vivo, dinde; details: oral administration, compared with controls
[4] = Plasma residues of TBA in orally treated turkeys; assay type: in vivo, dinde; details: à 10, 12, 14, 16 et 18 semaines; oral administration
[5] = administré par voie orale chez divers animaux notamment les bovins; cited from earlier work
[6] = 11ème semaine, 0,7 mg/Jour/dinde per os
[7] = 12ème semaine, 0,7 mg/Jour/dinde per os
[8] = 13ème semaine, 0,7 mg/Jour/dinde per os
[9] = 14ème semaine, 0,7 mg/Jour/dinde per os
[10] = 15ème semaine, 0,7 mg/Jour/dinde per os
[11] = 16ème semaine, 0,7 mg/Jour/dinde per os
[12] = 17ème semaine, 1,4 mg /jour/dinde per os
[13] = 18ème semaine, 1,4 mg /jour/dinde per os
[14] = 19éme semaine, 1,4 mg /jour/dinde per os

For `CC(=O)O[C@H]1CC[C@H]2[C@@H]3CCC4=CC(=O)CCC4=C3C=C[C@]12C` [acétate de trenbolone], the comportement locomoteur [1] was “aucune anomalie”, the “% variation = % de l'augmentation de GPM des traités par rapport aux témoins” value [2, 6] was 12% and the “GPM = Gain de poids cumulé” value [2, 6] was 1606,1. The “I.C. = indice de consommation” value [2, 6] was 2,05, the “PM = poids moyen” value [2, 6] was 4967,6 grammes and the “% variation = % de l'augmentation de GPM des traités par rapport aux témoins” value [2, 7] was 18%. For the same compound, the “GPM = Gain de poids cumulé” value [2, 7] was 2303,7, the “I.C. = indice de consommation” value [2, 7] was 2,05 and the “PM = poids moyen” value [2, 7] was 5665,2 grammes. The “% variation = % de l'augmentation de GPM des traités par rapport aux témoins” value [2, 8] was 12%, the “GPM = Gain de poids cumulé” value [2, 8] was 2907,2 and the “I.C. = indice de consommation” value [2, 8] was 2,54. The “PM = poids moyen” value [2, 8] was 6268,7 grammes, the “% variation = % de l'augmentation de GPM des traités par rapport aux témoins” value [2, 9] was 10% and the “GPM = Gain de poids cumulé” value [2, 9] was 3839,4. The “I.C. = indice de consommation” value [2, 9] was 2,66, the “PM = poids moyen” value [2, 9] was 7200,9 grammes and the “% variation = % de l'augmentation de GPM des traités par rapport aux témoins” value [2, 10] was 7%. The “GPM = Gain de poids cumulé” value [2, 10] was 4463,6, the “I.C. = indice de consommation” value [2, 10] was 2,66 and the “PM = poids moyen” value [2, 10] was 7825,1 grammes. For the same compound, the “% variation = % de l'augmentation de GPM des traités par rapport aux témoins” value [2, 11] was 8%, the “GPM = Gain de poids cumulé” value [2, 11] was 5258 and the “I.C. = indice de consommation” value [2, 11] was 3,1. For the same compound, the “PM = poids moyen” value [2, 11] was 8619,6 grammes, the “% variation = % de l'augmentation de GPM des traités par rapport aux témoins” value [2, 12] was 9% and the “GPM = Gain de poids cumulé” value [2, 12] was 6008,1. The “I.C. = indice de consommation” value [2, 12] was 3,33, the “PM = poids moyen” value [2, 12] was 9369,7 grammes and the “% variation = % de l'augmentation de GPM des traités par rapport aux témoins” value [2, 13] was 11%. The “GPM = Gain de poids cumulé” value [2, 13] was 6651,2, the “I.C. = indice de consommation” value [2, 13] was 3,45 and the “PM = poids moyen” value [2, 13] was 10012,8 grammes. For the same compound, the “% variation = % de l'augmentation de GPM des traités par rapport aux témoins” value [2, 14] was 11%, the “GPM = Gain de poids cumulé” value [2, 14] was 7197,8 and the “I.C. = indice de consommation” value [2, 14] was 3,59. The “PM = poids moyen” value [2, 14] was 10559,4 grammes, the “évolution du taux des transaminases plasmatiques (GOT et GPT)” value [3] was “n'est pas modifiée par rapport aux témoins” and the “résidus plasmatiques de TBA” value [4] was “inférieurs à la limite de dosage”. The activité [5] was “relativement faible”.
